Earlier results as cited in US20070059371A1, “Nanoparticulate ebastine formulations” (Elan Pharma International, Limited, priority 2005, published 2007).

Tests used:
[1] = mainly as conjugated metabolites

**Q.** For `CC(C)(C)c1ccc(C(=O)CCCN2CCC(OC(c3ccccc3)c3ccccc3)CC2)cc1` [Ebastine, 4′-tert-butyl-4-[4-(diphenylmethoxy)piperidino]butyrophenone], which “excreted in the urine” value [1] is on record?
**A.** 66%

**Q.** What about the solubility in water of the same compound?
**A.** not very soluble in water
